Results reported in the OPERA property sets (Mansouri et al. 2018).

Point of comparison: Nc1ccc(C(=O)Oc2ccccc2)c(O)c1, logP 3.15. Against it:
- FC(F)(F)c1ccccc1Cl — higher, 3.53
- COc1ccccc1O — lower, 1.32
- NNC(=O)c1ccnc(F)c1 — lower, -0.11
- NC(=O)c1cnc2ccccc2c1 — lower, 1.06
- NS(=O)(=O)c1ccc(S(N)(=O)=O)cc1 — lower, -0.96
- CC1OC(=O)c2ccccc21 (centres undefined) — lower, 1.41
- NC(=S)c1cccnc1 — lower, 0.67
- CC1=C(C)C(=O)C(C)=C(C)C1=O — lower, 2.23
- CC(=O)NC1=CC(=O)c2ccccc2C1=O — lower, 1.29
- CCN(CC)C(=O)[C@@H]1C=C2c3cccc4[nH]cc(c34)C[C@H]2N(C)C1 — lower, 2.95
- CCC(C)c1ccccc1OC(=O)NC (centres undefined) — lower, 2.78
- Nc1ccc2ncccc2c1 — lower, 1.28
- FN(F)C(c1ccccc1)(c1ccccc1)c1ccccc1 — higher, 3.73
- CCCCCCCC(C)=O — within 0.2 log units, 3.14
- NC(=O)c1cnccn1 — lower, -0.6
- COc1cccc2c1C(=N)c1c(O)c3c(c(O)c1C2=O)CC(O)(C(=O)CO)CC3OC1CC(N2CCOCC2)C(O)C(C)O1 (centres undefined) — lower, 1.8
- Nc1ccccc1Oc1ccccc1 — lower, 2.46
- CN(C)c1ccc(C=C[N+](=O)[O-])cc1 — lower, 2.67
- CC1(O)CCC2C3CCC4=CC(=O)CCC4(C)C3(F)C(O)CC21C (centres undefined) — lower, 2.38
- CC(C)C(C(=O)OC(C#N)c1cccc(Oc2ccccc2)c1)c1ccc(Cl)cc1 (centres undefined) — higher, 6.2
- COC(=O)c1ccncc1 — lower, 0.87
- ICCCI — within 0.2 log units, 3.02
- O=c1nc[nH]c(=O)[nH]1 — lower, -1.87
- CCCCOC(=O)c1ccc(C(=O)OCCCC)cc1 — higher, 5.53
- COc1cccc(-c2cc3ccccn3c2)c1 — higher, 4.14
- COc1cccc([N+](=O)[O-])c1 — lower, 2.16
- O=C1C=C(Cl)C(=O)c2ccccc21 — lower, 2.29
- CC(CO)NC1=C(N2CC2)C(=O)C(NC(C)CO)=C(N2CC2)C1=O (centres undefined) — lower, -0.37
- O=C1C=C(Br)C(=O)c2ccccc21 — lower, 2.44
- BrCCBr — lower, 1.96
- COc1cccnc1 — lower, 0.99
- Clc1cc2oc3c(Cl)c(Cl)ccc3c2c(Cl)c1Cl — higher, 6.26
- C=C(Br)CC1(C(C)C)C(=O)NC(=O)NC1=O — lower, 1.47
- CCC(C)(C)C(=O)OC1CC(C)C=C2C=CC(C)C(CCC(O)CC(O)CC(=O)O)C21 (centres undefined) — higher, 4.47
- CC(C)(C)NC[C@H](O)COc1ccccc1C1CCCC1 — higher, 4.15
- Nc1cc(Cl)cc(Cl)c1 — lower, 2.9
- CNC(=O)Oc1ccccc1C(C)C — lower, 2.31
- OCc1ccc2c(c1)OCO2 — lower, 1.05
- FC1(F)C(F)(F)C(F)(F)C(F)(F)C(F)(F)C1(F)F — lower, 2.91
- C=CC — lower, 1.77
- O=C(CN1CCCCC1)Nc1ccccc1Br — lower, 2.94
- CNc1nc(C)nc2c1ncn2[C@@H]1O[C@H](CO)C[C@@H]1F — lower, 0.64
- CCC(C)c1ccc(OCC(=O)O)cc1 (centres undefined) — within 0.2 log units, 3.12
- CC(=O)OCC(=O)[C@H]1CC[C@H]2[C@@H]3CCC4=CC(=O)CC[C@]4(C)[C@H]3CC[C@]12C — within 0.2 log units, 3.08
- CS/C(C)=N/OC(=O)N(C)SN(C)C(=O)O/N=C(\C)SC — lower, 1.7
- CC(C)OC(=O)n1cnc(CC(NC(=O)C2CCC(=O)N2)C(=O)N2CCCC2C(N)=O)c1 (centres undefined) — lower, -0.8
- CNCCNC — lower, -0.62
- O=C1CNC(=O)N1 — lower, -1.69
- NC1C2CCC1c1ccccc12 (centres undefined) — lower, 2.13
- CCOc1cccnc1 — lower, 1.44
- Nc1nc(N)nc(-c2ccc([N+](=O)[O-])cc2)n1 — lower, 1.6
- O=c1[nH]cc(F)c(=O)[nH]1 — lower, -0.89
- Nc1ccccc1C(=O)O — lower, 1.21
- CC(=O)Nc1cccc(O)c1 — lower, 0.73
- CN(C)/N=N/c1ccc2n[nH]cc2c1 — lower, 2.36
- CCCNC(=O)NS(=O)(=O)c1ccc(Cl)cc1 — lower, 2.27
- Cc1ccc(C(N)=O)cc1 — lower, 1.18
- O=C(O)Cc1ccccc1Nc1c(Cl)cccc1Br — higher, 4.64
- NNC(=O)c1ccnc(Cc2ccccc2)c1 — lower, 1.01
- C=CCNC(=O)NCC=C — lower, 0.64
- Nc1ccccc1SSc1ccccc1N — within 0.2 log units, 3.05
- O=C(O)c1cccc([N+](=O)[O-])c1 — lower, 1.83
- O=C(NC(CO)C(O)c1ccc(-c2ccccc2)cc1)C(Cl)Cl (centres undefined) — lower, 2.86
- CCCc1cc(OC)c(CC(C)N)cc1OC (centres undefined) — higher, 3.37
- COc1c(O)c(OC)c(OC)c(O)c1OC — lower, 0.39
- NC(=O)c1[nH]cnc1N — lower, -1.1
- O=S(=O)(Nc1ccc(-c2ccccc2)cc1)C(F)(F)F — higher, 4.97
- C=C(C)C(=O)OCC(C)O (centres undefined) — lower, 0.97
